Results as given in US20200375944A1, “LIPOIC ACID CHOLINE ESTER COMPOSITIONS AND METHODS TO GENERATE BIOCOMPATIBLE OPHTHALMIC FORMULATIONS” (ENCORE VISION, INC., priority 2015, published 2020).
Each block holds one compound with its values, some of them ahead of it.

Assays:
mouse lenses = conditions: ex-vivo; cited from earlier work
[1] = Solubility profile of LACE; format: physicochemical
[2] = Degradation of LACE formulation in storage (HPLC); format: physicochemical
Text: An issue that has rendered formulation of LACE problematic has been the propensity to destabilize by ring-opening of the dithiolane linkage to form oxidized species that compromise the activity of the molecule.

Solution pH of LACE = format: physicochemical
[3] = Osmolality of EV06 compositions adjusted with glycerol; format: physicochemical
Description: The requisite osmolality range for drug-containing formulations and placebo is 280-320 mOsm/kg. Preferably, all LACE formulations need to be within 290-310 mOsm/Kg.
A series of placebos was prepared. All placebos, and the LACE-containing solutions that were subsequently prepared, contained the following, with varying amounts of Glycerol: • 0.5% (5 mg/g) Alanine • 0.005% (0.05 mg/g) Benzalkonium Chloride • Small amounts of 1 N Sodium Hydroxide, 1 N Hydrochloric Acid, to adjust pH to 4.5 • Water for Injection (added for final weight)
Target for Total Osmolality was 300 mOsm/kg.
Accordingly, a full series of solutions was prepared with slightly altered target osmolalities for the solutions without LACE, and therefore different target glycerol contents. All solutions were prepared using the same Alanine/Benzalkonium Chloride, pH 4.5 stock solution used in the placebos, so that the final composition was consistently: […]

Hygroscopicity of LACE = format: physicochemical
Log P of LACE = format: physicochemical
human donor lenses = conditions: ex-vivo; cited from earlier work
[4] = Applicant's earlier observations

SMILES: O=C(O)CCCC[C@@H]1CCSS1 (racemic) [lipoic acid]
Lens softening (mouse lenses): lens softening can be induced pharmacologically

Solubility in acetonitrile ([1]; acetonitrile): >4 mg/mL in acetonitrile | Solubility in water ([1]; water): >50 mg/mL in water | Degradation in storage ([2]; room temperature): rapidly degrades into oxidized species | Solution pH (Solution pH of LACE): 7-7.5 | Additional osmolality for every 1% LACE [3, 4]: 44-55 mOsm/kg | Additional osmolality for every 1% LACE, average [3, 4]: 48 mOsm/kg | Effect of LACE on osmolality for every 1% ([3]; from Table 7 series): 57-60 mOsm/kg | Hygroscopicity (Hygroscopicity of LACE): Highly hygroscopic | Log P (Log P of LACE): <2
SMILES: C[N+](C)(C)CCOC(=O)CCCC[C@@H]1CCSS1 [LACE, Lipoic acid choline ester]
Degradation in storage ([2]; refrigerated temperatures): rapid oxidation occurs in storage as early as 1 week

SMILES: O[C@H](CS)[C@H](O)CS (racemic) [dithiothreitol (DTT), dithiothreitol]
Lens softening (human donor lenses): lens softening can be induced pharmacologically
